Assay results: ChEMBL document CHEMBL5465560, “Selectivity Literature for EUbOPEN Chemogenomic Library” (2024)
Values belong to the compound of their own block, whether it stands above or below them.

Assays:
[1] = biological target: Sodium-dependent serotonin transporter (Homo sapiens, UniProt P31645); experiment: Selectivity interaction (Serotonin transporter site assay, human recombinant ) EUB0000877a SLC6A4
[2] = biological target: T1, Rhodopsin kinase GRK7 (Homo sapiens) (UniProt Q8WTQ7); experiment: Selectivity interaction (SelectScreen profiling (Invitrogen)) EUB0000607a GRK7; details: at 2 µM
T1 sequence (whole entry): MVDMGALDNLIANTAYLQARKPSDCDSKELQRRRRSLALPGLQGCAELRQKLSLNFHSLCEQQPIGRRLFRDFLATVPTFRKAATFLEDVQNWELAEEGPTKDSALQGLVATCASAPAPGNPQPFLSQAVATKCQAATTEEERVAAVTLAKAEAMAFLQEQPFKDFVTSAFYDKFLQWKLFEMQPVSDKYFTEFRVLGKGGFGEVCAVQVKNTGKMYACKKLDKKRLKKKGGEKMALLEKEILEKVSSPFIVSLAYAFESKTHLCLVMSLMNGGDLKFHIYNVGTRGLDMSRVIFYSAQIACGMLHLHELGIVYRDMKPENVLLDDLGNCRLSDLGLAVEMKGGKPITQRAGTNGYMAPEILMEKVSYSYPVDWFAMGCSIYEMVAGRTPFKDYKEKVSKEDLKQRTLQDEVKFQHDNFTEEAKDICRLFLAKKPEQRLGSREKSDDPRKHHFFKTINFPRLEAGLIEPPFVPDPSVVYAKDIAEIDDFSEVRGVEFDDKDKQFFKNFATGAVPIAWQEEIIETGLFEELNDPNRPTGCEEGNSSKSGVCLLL

[3] = biological target: Tyrosine-protein kinase FRK (Homo sapiens) (UniProt P42685); experiment: Selectivity interaction (Upstate Kinase Profiler service (Millipore)) EUB0000056c FRK; details: at 1 µM
Tyrosine-protein kinase FRK (Homo sapiens), sequence (P42685 whole entry): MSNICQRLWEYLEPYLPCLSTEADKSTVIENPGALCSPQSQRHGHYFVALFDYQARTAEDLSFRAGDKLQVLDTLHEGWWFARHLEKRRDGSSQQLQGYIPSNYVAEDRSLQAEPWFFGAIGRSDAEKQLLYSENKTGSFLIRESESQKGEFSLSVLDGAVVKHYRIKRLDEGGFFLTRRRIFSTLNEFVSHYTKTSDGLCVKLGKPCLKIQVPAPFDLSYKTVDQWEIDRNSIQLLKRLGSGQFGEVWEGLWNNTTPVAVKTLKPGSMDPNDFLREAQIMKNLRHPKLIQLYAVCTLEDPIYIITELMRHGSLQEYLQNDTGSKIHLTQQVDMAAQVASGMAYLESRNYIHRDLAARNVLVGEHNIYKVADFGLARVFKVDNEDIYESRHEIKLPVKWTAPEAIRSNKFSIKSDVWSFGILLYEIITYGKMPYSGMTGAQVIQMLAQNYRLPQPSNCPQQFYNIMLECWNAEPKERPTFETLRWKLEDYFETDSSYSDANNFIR

[4] = biological target: Serine/threonine-protein kinase PAK 6 (Homo sapiens) (UniProt Q9NQU5); details: at 10 µM
[5] = biological target: T2, Tyrosine-protein kinase BTK (Homo sapiens, UniProt Q06187); experiment: Selectivity interaction (ProQinase) EUB0000171b BTK
T2 sequence (Q06187 whole entry): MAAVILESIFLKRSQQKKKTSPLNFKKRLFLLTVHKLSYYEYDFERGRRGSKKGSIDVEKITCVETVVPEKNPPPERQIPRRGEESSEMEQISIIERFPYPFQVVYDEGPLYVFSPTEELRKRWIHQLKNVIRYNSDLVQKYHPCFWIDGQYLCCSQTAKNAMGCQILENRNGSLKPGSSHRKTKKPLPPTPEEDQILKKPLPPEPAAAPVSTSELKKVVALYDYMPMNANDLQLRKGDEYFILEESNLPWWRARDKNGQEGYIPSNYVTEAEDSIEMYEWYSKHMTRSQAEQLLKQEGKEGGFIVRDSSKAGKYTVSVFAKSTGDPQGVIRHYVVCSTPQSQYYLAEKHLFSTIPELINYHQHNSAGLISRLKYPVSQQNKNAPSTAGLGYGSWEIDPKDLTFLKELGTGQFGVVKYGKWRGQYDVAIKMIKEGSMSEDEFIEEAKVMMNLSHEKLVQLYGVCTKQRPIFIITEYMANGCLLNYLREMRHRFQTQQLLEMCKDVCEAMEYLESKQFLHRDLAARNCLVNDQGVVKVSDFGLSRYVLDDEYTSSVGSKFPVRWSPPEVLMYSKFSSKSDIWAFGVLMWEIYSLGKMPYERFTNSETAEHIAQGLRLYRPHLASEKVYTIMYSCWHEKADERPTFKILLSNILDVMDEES

[6] = biological target: T2, Tyrosine-protein kinase BTK; experiment: Selectivity interaction (KinomeScan (DiscoverX)) EUB0000595a BTK; details: at 10 µM
[7] = biological target: Mitogen-activated protein kinase 14 (Homo sapiens, UniProt Q16539); experiment: Selectivity interaction (KinomeScan (DiscoverX)) EUB0000595a MAPK14; details: at 10 µM
Mitogen-activated protein kinase 14, sequence (Q16539 whole entry): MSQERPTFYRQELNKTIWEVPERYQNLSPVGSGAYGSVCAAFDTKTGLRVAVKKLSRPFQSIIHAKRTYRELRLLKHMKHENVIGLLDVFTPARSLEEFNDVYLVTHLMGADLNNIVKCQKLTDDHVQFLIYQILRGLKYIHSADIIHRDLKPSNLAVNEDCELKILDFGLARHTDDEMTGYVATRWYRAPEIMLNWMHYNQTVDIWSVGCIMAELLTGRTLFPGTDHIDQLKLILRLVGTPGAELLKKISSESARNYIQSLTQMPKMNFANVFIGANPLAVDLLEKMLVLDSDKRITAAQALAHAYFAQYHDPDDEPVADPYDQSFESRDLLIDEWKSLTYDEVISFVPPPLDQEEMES

[8] = biological target: Mitogen-activated protein kinase kinase kinase kinase 1 (Homo sapiens) (UniProt Q92918); experiment: Selectivity interaction (KinomeScan (DiscoverX)) EUB0001049a MAP4K1; details: at 1 µM
Mitogen-activated protein kinase kinase kinase kinase 1 (Homo sapiens), sequence (Q92918 whole entry, looked up): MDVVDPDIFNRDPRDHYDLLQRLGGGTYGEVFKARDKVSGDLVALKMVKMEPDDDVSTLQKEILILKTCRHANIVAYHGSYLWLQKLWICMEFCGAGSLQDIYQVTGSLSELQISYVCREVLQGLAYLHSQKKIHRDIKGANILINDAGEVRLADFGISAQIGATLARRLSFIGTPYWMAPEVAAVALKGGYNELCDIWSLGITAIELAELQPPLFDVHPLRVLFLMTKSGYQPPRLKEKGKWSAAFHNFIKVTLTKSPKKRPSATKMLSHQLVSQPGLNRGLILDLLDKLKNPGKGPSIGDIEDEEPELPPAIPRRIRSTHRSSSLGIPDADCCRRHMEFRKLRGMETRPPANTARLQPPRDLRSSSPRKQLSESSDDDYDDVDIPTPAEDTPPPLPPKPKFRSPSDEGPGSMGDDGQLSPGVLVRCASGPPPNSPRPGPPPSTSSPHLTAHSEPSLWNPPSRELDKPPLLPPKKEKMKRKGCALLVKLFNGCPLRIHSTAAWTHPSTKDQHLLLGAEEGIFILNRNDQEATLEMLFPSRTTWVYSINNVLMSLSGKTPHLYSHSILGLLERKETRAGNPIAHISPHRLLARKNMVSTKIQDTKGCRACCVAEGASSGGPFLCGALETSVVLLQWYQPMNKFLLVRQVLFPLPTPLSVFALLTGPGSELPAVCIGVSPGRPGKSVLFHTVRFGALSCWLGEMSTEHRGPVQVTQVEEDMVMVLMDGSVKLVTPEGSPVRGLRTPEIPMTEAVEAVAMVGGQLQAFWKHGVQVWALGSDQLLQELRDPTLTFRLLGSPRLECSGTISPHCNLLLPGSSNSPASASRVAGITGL

[9] = biological target: Tyrosine-protein kinase receptor Tie-1 (Homo sapiens) (UniProt P35590); experiment: Selectivity interaction (KinomeScan (DiscoverX)) EUB0000655a TIE1; details: at 10 µM
Tyrosine-protein kinase receptor Tie-1 (Homo sapiens), sequence (P35590 whole entry): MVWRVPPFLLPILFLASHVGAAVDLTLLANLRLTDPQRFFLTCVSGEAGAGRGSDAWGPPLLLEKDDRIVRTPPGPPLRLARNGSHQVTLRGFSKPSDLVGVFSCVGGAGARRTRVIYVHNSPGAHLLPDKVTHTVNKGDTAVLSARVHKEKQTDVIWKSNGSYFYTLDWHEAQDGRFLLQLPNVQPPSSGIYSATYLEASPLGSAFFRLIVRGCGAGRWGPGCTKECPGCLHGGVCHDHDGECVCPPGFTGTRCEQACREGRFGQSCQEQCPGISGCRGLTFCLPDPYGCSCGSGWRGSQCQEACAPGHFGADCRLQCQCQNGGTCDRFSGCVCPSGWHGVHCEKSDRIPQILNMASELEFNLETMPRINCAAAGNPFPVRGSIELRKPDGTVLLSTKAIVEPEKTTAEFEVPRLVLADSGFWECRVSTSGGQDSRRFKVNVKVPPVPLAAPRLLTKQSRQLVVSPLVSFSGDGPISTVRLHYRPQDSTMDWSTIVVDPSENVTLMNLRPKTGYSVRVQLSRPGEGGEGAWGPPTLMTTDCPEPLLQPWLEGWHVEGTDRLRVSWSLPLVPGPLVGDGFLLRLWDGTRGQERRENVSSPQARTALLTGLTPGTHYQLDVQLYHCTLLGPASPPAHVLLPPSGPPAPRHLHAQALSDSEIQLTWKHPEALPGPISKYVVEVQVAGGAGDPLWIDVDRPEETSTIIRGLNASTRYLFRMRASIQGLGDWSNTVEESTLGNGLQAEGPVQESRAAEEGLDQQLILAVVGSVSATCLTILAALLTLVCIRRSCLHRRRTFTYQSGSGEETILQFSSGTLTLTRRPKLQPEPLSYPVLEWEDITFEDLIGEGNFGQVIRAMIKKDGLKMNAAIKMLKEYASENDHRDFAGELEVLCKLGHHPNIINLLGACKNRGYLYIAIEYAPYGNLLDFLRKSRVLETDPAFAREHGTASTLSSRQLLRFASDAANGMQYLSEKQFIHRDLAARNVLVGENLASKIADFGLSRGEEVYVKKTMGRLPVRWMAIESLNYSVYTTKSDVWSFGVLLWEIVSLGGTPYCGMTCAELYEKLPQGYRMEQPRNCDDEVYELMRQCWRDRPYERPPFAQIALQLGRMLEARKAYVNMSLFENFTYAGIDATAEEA

[10] = biological target: MAP kinase-interacting serine/threonine-protein kinase 2 (Homo sapiens, UniProt Q9HBH9)
MAP kinase-interacting serine/threonine-protein kinase 2, sequence (Q9HBH9 whole entry): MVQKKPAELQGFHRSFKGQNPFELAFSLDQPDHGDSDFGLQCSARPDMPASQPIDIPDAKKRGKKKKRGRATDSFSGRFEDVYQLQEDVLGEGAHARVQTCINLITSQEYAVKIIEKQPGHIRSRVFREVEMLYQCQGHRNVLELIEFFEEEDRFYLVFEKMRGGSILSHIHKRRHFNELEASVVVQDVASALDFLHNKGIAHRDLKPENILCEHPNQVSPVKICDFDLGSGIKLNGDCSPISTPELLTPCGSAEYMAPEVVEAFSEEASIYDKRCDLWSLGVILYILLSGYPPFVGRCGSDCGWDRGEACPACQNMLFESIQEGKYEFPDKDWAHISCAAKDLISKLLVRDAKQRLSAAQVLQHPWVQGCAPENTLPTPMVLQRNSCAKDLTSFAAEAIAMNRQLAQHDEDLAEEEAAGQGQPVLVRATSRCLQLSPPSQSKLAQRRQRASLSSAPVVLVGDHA

[11] = biological target: STE20-like serine/threonine-protein kinase (Homo sapiens, UniProt Q9H2G2); experiment: Selectivity interaction (KinomeScan (DiscoverX)) EUB0000092b SLK; details: at 10 µM
[12] = biological target: Tyrosine-protein kinase HCK (Homo sapiens) (UniProt P08631); details: at 10 µM
Tyrosine-protein kinase HCK (Homo sapiens), sequence (P08631 2-526 limits assumed): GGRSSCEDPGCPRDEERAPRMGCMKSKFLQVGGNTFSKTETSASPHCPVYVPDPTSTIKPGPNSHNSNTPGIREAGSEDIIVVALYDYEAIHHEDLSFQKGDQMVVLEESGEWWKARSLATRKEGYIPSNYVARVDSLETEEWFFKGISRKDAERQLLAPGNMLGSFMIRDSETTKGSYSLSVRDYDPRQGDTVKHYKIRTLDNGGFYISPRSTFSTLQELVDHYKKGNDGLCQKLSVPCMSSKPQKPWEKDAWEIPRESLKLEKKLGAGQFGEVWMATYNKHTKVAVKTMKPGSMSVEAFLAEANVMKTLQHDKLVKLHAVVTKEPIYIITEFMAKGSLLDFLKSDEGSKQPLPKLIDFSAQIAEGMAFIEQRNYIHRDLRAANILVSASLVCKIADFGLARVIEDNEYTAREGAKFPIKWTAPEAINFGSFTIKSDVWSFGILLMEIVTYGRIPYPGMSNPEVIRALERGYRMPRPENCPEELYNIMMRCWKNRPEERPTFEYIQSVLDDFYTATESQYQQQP

[13] = biological target: T3, Serine/threonine-protein kinase NLK (Homo sapiens) (UniProt Q9UBE8); experiment: Selectivity interaction (KinomeScan (DiscoverX)) EUB0000618a NLK; details: at 10 µM
T3 sequence (whole entry): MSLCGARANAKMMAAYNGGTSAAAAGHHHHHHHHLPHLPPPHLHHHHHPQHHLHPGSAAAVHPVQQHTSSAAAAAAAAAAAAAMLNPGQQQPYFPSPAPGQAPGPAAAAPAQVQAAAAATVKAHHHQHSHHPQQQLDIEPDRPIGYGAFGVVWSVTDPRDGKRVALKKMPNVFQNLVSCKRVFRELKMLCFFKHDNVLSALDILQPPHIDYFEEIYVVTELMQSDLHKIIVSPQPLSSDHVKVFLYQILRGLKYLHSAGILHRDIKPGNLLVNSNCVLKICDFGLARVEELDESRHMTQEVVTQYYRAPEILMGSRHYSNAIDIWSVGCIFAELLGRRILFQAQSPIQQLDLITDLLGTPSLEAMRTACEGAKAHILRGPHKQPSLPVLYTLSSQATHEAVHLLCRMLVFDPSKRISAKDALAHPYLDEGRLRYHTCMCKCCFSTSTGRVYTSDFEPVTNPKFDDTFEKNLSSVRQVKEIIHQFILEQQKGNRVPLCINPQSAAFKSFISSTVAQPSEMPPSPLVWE

[14] = biological target: T4, Dual specificity mitogen-activated protein kinase kinase 3 (Homo sapiens) (UniProt P46734); experiment: Selectivity interaction (ActivX KiNativ screen (ex vivo kinase selectivity in human PBMCs)) EUB0001619a MAP2K3; format: cell-based; details: PBMC, at 1 µM
T4 sequence (whole entry): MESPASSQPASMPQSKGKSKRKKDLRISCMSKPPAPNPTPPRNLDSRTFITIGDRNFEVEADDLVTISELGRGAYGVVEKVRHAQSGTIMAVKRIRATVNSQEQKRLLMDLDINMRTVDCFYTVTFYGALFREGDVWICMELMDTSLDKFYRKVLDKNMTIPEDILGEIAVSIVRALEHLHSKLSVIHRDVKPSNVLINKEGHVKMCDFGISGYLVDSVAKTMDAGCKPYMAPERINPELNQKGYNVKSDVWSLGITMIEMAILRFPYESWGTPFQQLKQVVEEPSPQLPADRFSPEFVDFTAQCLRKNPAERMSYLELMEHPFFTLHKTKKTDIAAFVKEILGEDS

[15] = biological target: Serine/threonine-protein kinase VRK2 (Homo sapiens) (UniProt Q86Y07); experiment: Selectivity interaction (KinomeScan (DiscoverX)) EUB0001619a VRK2; details: at 1 µM
Serine/threonine-protein kinase VRK2 (Homo sapiens), sequence (Q86Y07 whole entry): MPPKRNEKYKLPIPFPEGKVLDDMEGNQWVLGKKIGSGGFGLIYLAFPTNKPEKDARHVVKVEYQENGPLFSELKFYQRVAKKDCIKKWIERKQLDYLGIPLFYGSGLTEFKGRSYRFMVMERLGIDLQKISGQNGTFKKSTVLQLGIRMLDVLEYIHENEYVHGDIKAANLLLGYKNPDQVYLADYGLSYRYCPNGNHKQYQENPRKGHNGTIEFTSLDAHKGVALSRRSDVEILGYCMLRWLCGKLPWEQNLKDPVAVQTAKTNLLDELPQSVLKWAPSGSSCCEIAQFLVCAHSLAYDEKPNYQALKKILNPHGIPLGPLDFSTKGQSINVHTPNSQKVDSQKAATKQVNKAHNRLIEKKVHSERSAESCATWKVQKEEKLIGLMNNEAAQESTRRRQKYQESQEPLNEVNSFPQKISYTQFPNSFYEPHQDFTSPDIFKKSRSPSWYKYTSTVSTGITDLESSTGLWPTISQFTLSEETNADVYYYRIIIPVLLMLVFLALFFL

- IC50 [1]: > 30 µM
SMILES: CCC(=O)N1CC[C@H](Nc2ncnc3c2CN(c2cnc(OC)c(C(F)(F)F)c2)CC3)C1 [LENIOLISIB]

SMILES: CNC(=O)Nc1ccc(-c2nc(N3CC4CCC(C3)O4)c3cnn(C4CCC5(CC4)OCCO5)c3n2)cc1
- % of inhibition [2]: 7%

- % of inhibition [3]: 32%
SMILES: Cc1ccc(-c2ccc3c(ccc4sc5c(c43)NC[C@@H](C)NC5=O)n2)cn1

- % of control [4]: 100%
SMILES: CCN(CC)CCCCNc1ncc2cc(-c3cc(OC)cc(OC)c3)c(NC(=O)NC(C)(C)C)nc2n1

- % of control ([5]; at 1 µM): 101%
- % of control ([5]; at 5 µM): 87%
SMILES: C=CC(=O)Nc1cccc(C(=O)Nc2ccc(Nc3cc(-c4[nH]c(SC)nc4C)ccn3)cc2)c1

SMILES: COCC(=O)NC/C=C/c1ccc2ncnc(Nc3ccc(Oc4ccc(C)nc4)c(C)c3)c2c1 [CP-724714]
- % of control [6]: 68%
- % of control [7]: 100%

SMILES: COc1cc(Nc2nc(C)cc(-c3cnn4nc(OC)ccc34)n2)cc(C(F)(F)F)c1
- % of control [8]: 86%

SMILES: CN(C)CCOc1ccc(-c2nc(-c3ccncc3)c(-c3ccc4c(c3)CC/C4=N\O)[nH]2)cc1
- % of control [9]: 44%

- IC50 [10]: > 10 µM
SMILES: CCc1cccc(CC)c1NC(=O)c1nn(C)c2c1CCc1cnc(Nc3ccc(C(=O)NC4CCN(C)CC4)cc3OC(F)(F)F)nc1-2

SMILES: CCC(=O)N1CCN(c2ccc(-n3c(=O)ccc4cnc5ccc(-c6cnc7ccccc7c6)cc5c43)cc2C(F)(F)F)CC1
- % of control [11]: 94%

SMILES: Cc1cc([C@@H](C)Nc2ccccc2C(=O)O)c2nc(N3CCOCC3)cc(=O)n2c1 [AZD-6482]
- % of control [12]: 100%

SMILES: O[C@H]1CC[C@H](Nc2ncc3nc(Nc4c(F)cc(F)cc4F)n([C@H]4CCOC4)c3n2)CC1
- % of control [13]: 5.2%

SMILES: N#Cc1cccc(-c2c[nH]c3ncnc(N4CCOCC4)c23)c1
- % of inhibition [14]: -5%
- % of control [15]: 100%
